Assay results reported in patent US12128010B2, “Semifluorinated compounds and their compositions” (NOVALIQ GMBH, priority 2015, dated 2024).
“Also recorded” adds a separate entry of the source. Values belong to the compound of their own block, whether it stands above or below them.

Experiments:
[1] = Differential Scanning Calorimetry of mixtures; type: physicochemical
Method: Differential Scanning calorimetry (DSC 1, Mettler Toledo, Greifensee, Switzerland) is used to characterize structure and phase behavior of mixtures of CF3(CF2)5—CH(CH3)—(CH2)5—CH3 and CF3(CF2)5(CH2)7CH3. DSC was employed to obtain data on transitions by temperature rising scans with heating rate of 1° C./min. Sealed standard aluminum crucibles (40 μl, Mettler Toledo) were used.

[2] = Evaporation time of mixtures; type: physicochemical; details: FIG. 1, in words
Method: The evaporation time of mixtures of the semifluorinated alkane CF3(CF2)5(CH2)7CH3 and CF3(CF2)5—CH(CH3)—(CH2)5—CH3 was evaluated. A droplet of 10 μL volume of each mixture was placed on a glass surface at room temperature. Time until evaporation was recorded by video-monitoring.

[3] = Refractive index of mixtures; type: physicochemical; details: FIG. 2, in words
Method: The refractive index of the mixtures was also determined. For topically applied ophthalmic compositions, the refractive index of the composition should preferably similar, or adapted to that of the eye and lens, for instance as close to that of physiological tear fluid as possible. If the refractive index of a composition is not similar, when applied to the surface of the eye, a patient may experience blurring or impaired vision. […] By varying the amount of this semifluorinated alkane in the mixture, it may also be feasible to adapt the composition to the requirements of the intended ophthalmic use, for instance adapting to a patient with an altered tear fluid composition and refractive index, due to an eye condition and/or age.

[4] = system: Rabbit corneas; experiment: Ex Vivo Eye Irritation Test (EVEIT), corneal healing
Method: Anim., 2008 (36) p 25-32; and N. Schrage et al, Graefes Arch Clin Exp Ophthalmol 2012 (250), 1330-1340).
Method. Rabbit corneas were obtained and placed in an artificial anterior ocular chamber which was gently filled with serum-free minimal essential medium (Eagle's MEM) containing Earle's salts and HEPES buffer for nutrition. The medium was contstantly replenished by a micropump to imitate the physiological condition of the eye. The culture chambers were held at 32° C. under normal air without supplementary CO2 and >95% relative humidity. Five corneas per test substance (n=5) were used except for the postive control with which two corneas (n=2) were tested.
After 12 h of stabilization in the culture chamber, the corneas were evaluated by microscopy and corneas with intact epithelium and without opacities were selected. Four small abrasions (2.3-4.3 mm^2) were applied to the surface of the selected corneas with a cornea drill. All defects were monitored by fluorescein sodium staining (0.17% aq. solution) and microscopy.
The test substances were administered one hour after induction of the corneal erosion and were applied six times daily onto the apex of the corneas (30-50 μL every four hours). A soft-tipped cannula, with continuous suction was placed on the lowest part of the corneoscleral region within the culturing chamber to remove any excess fluid. Experiments were terminated after 3 days of application. Biomicroscopic images of the corneas were taken daily to document the corneal healing process using a phase-contrast microscope integrated camera (KY-F1030U, JVC, (Bad Vilbel, DE) mounted on a Z16 APO Microscope (Wetzlar, DE)). All defects were monitored by fluorescein sodium stains (0.17% aq. solution) with yellow green fluorescence indicating the areas of epithelial defects. Erosion sizes were determined using a software tool of the microscope (DISKUS). At the end of the 3 days, the experiment was terminated and all corneas were fixed in 3.7% formaldehyde and stained with a hematoxylin-eosin dye for microscopic evaluation. To monitor the metabolic activity of the cornea, glucose and lactate concentrations were photometrically quantified in the outflow medium from the artificial anterior chambers.

[5] = hematoxylin-eosin stained corneas after 3 days of application

Compound: CCCCCCC(C)C(F)(F)C(F)(F)C(F)(F)C(F)(F)C(F)(F)C(F)(F)F (centres unmarked) [CF3—(CF2)5—CH(CH3)—(CH2)5—CH3, 2-perfluorohexyloctane]
- effect on melting enthalpy when present in a mixture with F6H8 ([1]; in words): decreased
- effect on melting temperature when present in a mixture with F6H8 ([1]; in words): significant reduction in the melting temperature
- effect of increasing percentage on evaporation time of the mixtures [2]: decreases the evaporation time
- effect of increased content on refractive index of the mixtures [3]: increasing refractive index value

- Low temperature transition Endset ([1]; DSC, heating rate 1° C./min): −38.32 °C
- Low temperature transition Onset ([1]; DSC, heating rate 1° C./min): −45.47 °C
- Low temperature transition Peak ([1]; DSC, heating rate 1° C./min): −40.37 °C
- Low temperature transition ΔH ([1]; DSC, heating rate 1° C./min): -0.69 J/g
- Melting transition Endset ([1]; DSC, heating rate 1° C./min): −2.14 °C
- Melting transition Onset ([1]; DSC, heating rate 1° C./min): −6.33 °C
- Melting transition Peak ([1]; DSC, heating rate 1° C./min): −4.53 °C
- Melting transition ΔH ([1]; DSC, heating rate 1° C./min, label = wt % CF3—(CF2)5—CH(CH3)—(CH2)5—CH3 in mixture with CF3(CF2)5(CH2)7CH3): -36.57 J/g
Compound: CCCCCCCCC(F)(F)C(F)(F)C(F)(F)C(F)(F)C(F)(F)C(F)(F)F [Composition 0, 1-perfluorohexyloctane]

Compound: benzalkonium chloride [0.01% BAC]
- Corneal Erosion Size, Mean (SD) ([4]; Day 0 (before application)): 11.57 (0.86) mm^2
- Corneal Erosion Size, Mean (SD) ([4]; Day 1, applied six times daily, 30-50 μL): 5.91 (0.28) mm^2
- Corneal Erosion Size, Mean (SD) ([4]; Day 2, applied six times daily, 30-50 μL): 8.74 (7.6) mm^2
- Corneal Erosion Size, Mean (SD) ([4]; Day 3, applied six times daily, 30-50 μL): 17.46 (6.43) mm^2
- Day 3 Histological Observations: Descemet membrane and endothelium [4, 5]: Descemet membrane is present with intact endothelium
- Day 3 Histological Observations: epithelium, stroma, corneal structure [4, 5]: Severe alterations of the superficial cornea with disintegration of; also recorded: Reduced staining of background substance indicating chemical
- Day 3 Histological Observations: keratocytes [4, 5]: Severe reduction in number of keratocyte cells which also appear
- course of the induced epithelial erosions/lesions ([4]; over the three days of the experiment, in words): progressive increase
